Measurements: paper PMC11720353, “Clove Essential Oil as a Source of Antitumoral Compounds Capable of Crossing the Blood–Brain Barrier: A Focus on the Effects of β-Caryophyllene and Eugenol in a Glioblastoma Cell Line” (International Journal of Molecular Sciences, 2024)
Where two headings read alike, the source gives them in different places.

Columns and labels:
U87 cells [1] = experiment: Metabolic activity (Alamar blue) assay and HSA synergy analysis; assay type: cell-based, human; details: EU 2.5, 25, 200 µM or BCA 1.25, 12.5, 125 µM alone, 24-72 h
Method: To evaluate the cytotoxic/antiproliferative potential of BCA and/or EU, the U87 and HMC3 cells were seeded, in triplicate, into 48-well culture plates (4 × 10^4 cells/well). After 24 h, the medium was replaced, and the cells were treated either with the vehicle (ethanol) or with different concentrations of EO single molecules, diluted in ethanol alone ([…]; BCA: 1.25 µM, µM, 125 µM) or in combination (EU 2 µM and BCA 1.25 µM; EU 20 µM and BCA 12.5 µM; and EU 200 µM and BCA 125 µM) in order to evaluate the possible synergistic effects. The final concentration of ethanol in the cell medium was kept lower than 0.1%. Non-treated cells were considered the control condition. Metabolic activity was evaluated using a modified Alamar blue® assay, as previously described. […] After 2 h of incubation at 5% CO2 and 37 °C, the absorbance was read at 570 and 600 nm in a BioTeck (BioTek Instruments, Inc., Winooski, VT, USA). The absorbance results were obtained using the Gen5 program. The metabolic activity was then calculated by the following equation: Metabolicactivity %=A570−A600 oftreated cells/A570−A600 ofcontrol cells×100 All data were analyzed using the software GraphPad Prism v.9.00 (GraphPad Software, San Diego, CA, USA). All in vitro experiments were performed in triplicate, and the acquired results were expressed as means ± SEM. […]

U87 cells [2] = experiment: Clonogenic cell survival assay; assay type: cell-based, human; details: EU 200 µM, BCA 125 µM, alone or in combination, 14 days
Method: An evaluation of the antiproliferative effect via clonogenic assay on the tumoral U87 cells was performed using an adapted protocol from the previously described procedure. Briefly, U87 cells (0.8 × 10^3 cells/well) were seeded into 6-well plates and incubated for 24 h. After the incubation, based on the results obtained from the cell viability assay and synergistic score, the cells were treated either with EO single compounds diluted in ethanol alone (EU 200 µM and BCA 125 µM) or in combination for 14 days with the media being changed every 2/3 days. The cells without treatment were considered the control condition. Following the incubation, the cells were washed with PBS, fixed with paraformaldehyde (PFA) and stained with 0.1% crystal violet solution. The number of colonies was counted by microscopy, and the surviving fraction (SF) was calculated as the mean colonies/number of cells seeded.

U87 cells [3] = experiment: Cell death assay (Annexin V/PI, flow cytometry); assay type: cell-based, human; details: EU 200 µM, BCA 125 µM, alone or in combination, 24 h
Method: (§4) HMC3 and U87 cells were seeded in duplicate into 12-well plates (10 × 10^4 cells/well). After 24 h of incubation at 37 °C and 5% CO2, the medium was replaced, and the cells were treated either with EU (200 µM) or BCA (125 µM), alone and in combination (EU 200 µM + BCA 125 µM). Following the 24 h treatment, the cells were co-stained with AV-APC and PI according to the manufacturer’s protocol (Biolegend, San Diego, CA, USA). Briefly, the cells were resuspended in binding buffer (100 µL) and incubated with AV-APC solution (5 µL) and PI solution (2 µL) for 15 min at room temperature. Then, the cells were diluted in a binding buffer (400 µL). A six-parameter, four-color FACSCalibur flow cytometer (Becton Dickinson, San Jose, CA, USA) was used, and at least 10,000 events were collected by acquisition using CellQuest software (Becton Dickinson, San Jose, CA, USA). The results were analyzed with the Paint-a-Gate software and expressed in percentage (%).

HMC3 cells [4] = experiment: Cell death assay (Annexin V/PI, flow cytometry); assay type: cell-based, human; details: EU 200 µM, BCA 125 µM, alone or in combination, 24 h
Method: as §4

HMC3 cells [5] = experiment: Cell cycle analysis (PI/RNase, flow cytometry); assay type: cell-based, human; details: EU 200 µM, BCA 125 µM, alone or in combination, 24 h
Method: (§1) Analysis of the effect of BCA and/or EU on the cell cycle was assessed with flow cytometry using propidium iodide (PI)/RNase solution, according to the manufacturer’s protocol (Immunostep, Salamanca, Spain), as previously described. HMC3 and U87 cells (30 × 10^4 cells/well) were seeded in triplicate into 6-well plates and incubated for 24 h at 37 °C and 5% CO2. Thereafter, the cells were treated either with EU (200 µM) or BCA (125 µM) alone or in combination (EU 200 µM + BCA 125 µM). After 24 h, the cells were detached and fixed in 70% ethanol for 60 min at 4 °C, washed twice with PBS, and then stained with 500 µL of PI/RNase solution. The results were acquired using CellQuest software and expressed as the calculated percentage of the cell population in each cell cycle phase (G0/G1, S and G2/M) according to the PI intensity.

U87 cells [6] = experiment: Cell cycle analysis (PI/RNase, flow cytometry); assay type: cell-based, human; details: EU 200 µM, 24 h
Method: as §1

HMC3 cells [7] = experiment: Quantitative real-time PCR of mRNA levels; assay type: cell-based, human; details: 24 h
Method: (§2) An analysis of the genes involved in angiogenesis, tumor progression and proliferation were performed. In particular, we analyzed the genes involved in the cell cycle and in three different apoptotic pathways: B-cell lymphoma-2 (BCL2), Bcl-2-like protein 1 (BCL2L1), Bcl-2 Associated X-protein (BAX), BCL2 Antagonist/Killer 1 (BAK-1) and Caspase 9 (CASP9) as the key genes of the intrinsic mitochondrial pathway; and Phosphatase and tensin homolog (PTEN), Tumor protein p53 (TP53), Murine double minute 2 (MDM2), Cyclin-dependent kinase 4 (CDK4) and Vascular endothelial growth factor A (VEGFA) mRNA levels were assessed by quantitative real-time PCR (qRT-PCR). HMC3 and U87 cells were seeded with a density of 1 × 10^6 cells per well and incubated for 24 h at 37 °C and 5% CO2. Thereafter, the cells were treated either with EU (200 μM) or BCA (125 μM) alone and in combination (EU 200 μM + BCA 125 μM). Total RNA was extracted using the TripleXtractor solution (GRISP, Lisbon, Portugal) according to the manufacturer's protocol. RNA was converted into cDNA through the […] Synthesis Supermix (GRISP, Lisbon, Portugal). Each optimized reaction was performed using […] SYBR Green Mastermix 2X with […], Lisbon, Portugal) and subjected to the amplification protocol described by the manufacturer, using a melting temperature of 60 °C. The relative gene expression was determined by the 2^-ΔΔCt method and normalized on Glyceraldehyde-3-Phosphate Dehydrogenase (GAPDH), which was the endogenous reference and relative to the untreated cells (control condition).

U87 cells [8] = experiment: Quantitative real-time PCR of mRNA levels; assay type: cell-based, human; details: 24 h
Method: as §2

HMC3 cells [9] = experiment: Inflammatory cytokines in conditioned media (Luminex/BioPlex); assay type: cell-based, human; details: EU 200 µM, BCA 125 µM, alone or in combination, 24 h
Method: (§3) In order to determine the impact of BCA and/or EU on inflammatory cytokines levels, cytokine expression analyses (L-6, IL-4, IL-8 and TNF-α) were performed using a customized detection panel purchased from Bio-techne (Minneapolis, MN, USA). The cells were seeded, in triplicate, into 24-well culture plates (8 × 10^4 cells/well). After 24 h, the medium was replaced and the cells were treated either with the vehicle (ethanol) or with different concentrations of EO single compounds alone (EU: 2 µM, 20 µM, 200 µM; and BCA: 1.25 µM, 12.5 µM, 125 µM) or in combination (EU 2 µM + BCA 1.25 µM; EU 20 µM + BCA 12.5 µM; and EU 200 µM + BCA 125 µM). The final concentration of ethanol in the cell medium was kept lower than 0.1%. The ethanol 0.1%-treated cells were considered the control condition. After the 24 h treatment, supernatants were collected and centrifuged at 4,000× g for 10 min, and the samples were analyzed with the BioPlex 200 instrument (BioRad®, Hercules, CA, USA) following the manufacturer’s protocol.

U87 cells [10] = experiment: as above; assay type: cell-based, human; details: EU 200 µM, BCA 125 µM, alone or in combination, 24 h
Method: as §3

[11] = cited from earlier work
[12] = EU 200 µM, BCA 125 µM, alone or in combination

C=CCc1ccc(O)c(OC)c1 [EU, 4-allyl-2-methoxyphenol]
reduction in metabolic activity, single compounds (U87 cells [1]): No reduction | decrease of clonal growth / colony formation with respect to control (U87 cells [2]): −59.5% | live (viable) cells, change with respect to control (U87 cells [3]): did not affect | cell viability (HMC3 cells [4]): did not affect | effect on cell cycle (HMC3 cells [5]): no effects | effect on cell cycle (U87 cells [6]): no significant effect | PTEN mRNA expression, change vs control (HMC3 cells [7]; EU 200 µM or BCA 125 µM): +42.2% | BAK1 mRNA expression, change vs control (HMC3 cells [7]; [12]): no effect | BAX mRNA expression, change vs control (HMC3 cells [7]; [12]): −29.7% | BCL2L1 mRNA expression, change vs control (HMC3 cells [7]; [12]): −34.1% | BCL2 mRNA expression, change vs control (HMC3 cells [7]; [12]): −61.2% | CASP9 mRNA expression, change vs control (HMC3 cells [7]; [12]): no effect | CDK4 mRNA levels, change vs control (HMC3 cells [7]; [12]): no effects | MDM2 mRNA expression, change vs control (HMC3 cells [7]; [12]): −61.2% | TP53 mRNA expression, change vs control (HMC3 cells [7]; [12]): no effect | VEGFA mRNA expression, change vs control (HMC3 cells [7]; [12]): −31.5% | PTEN mRNA expression, change vs control (U87 cells [8]; EU 200 µM or BCA 125 µM): +86.4% | BAK1 mRNA expression, change vs control (U87 cells [8]; [12]): +32.3% | BAX mRNA expression, change vs control (U87 cells [8]; [12]): +50.3% | BCL2L1 mRNA expression, change vs control (U87 cells [8]; [12]): −42.2% | BCL2 mRNA expression, change vs control (U87 cells [8]; [12]): −45.6% | CASP9 mRNA expression, change vs control (U87 cells [8]; [12]): no effect | MDM2 mRNA expression, change vs control (U87 cells [8]; [12]): no effect | TP53 mRNA expression, change vs control (U87 cells [8]; [12]): +143.6% | VEGFA mRNA expression, change vs control (U87 cells [8]; [12]): no effect | CDK4 mRNA levels, change vs control (U87 cells [8]; EU 200 µM, BCA 125 µM, alone or in combination, normalized to GAPDH): −49.1% | IL-4 levels, change vs control (HMC3 cells [9]): −26% | IL-4 levels, change vs control (U87 cells [10]): −31% | IL-6 secretion, change vs control (U87 cells [10]): None of the treatments modulated | IL-8 secretion, change vs control (U87 cells [10]): unaffected | ability to cross the blood–brain barrier ([11]; rat, in vivo): high aptitude to cross the blood–brain barrier

O=C/C=C/c1ccccc1 [cinnamaldehyde]
ability to permeate the CNS ([11]; rat, not told, po): inability to permeate the CNS

C=C(C)[C@H]1CC=C(C)CC1 [limonene]
ability to permeate the CNS ([11]; after oral administration): inability to permeate the CNS
